Experiments:
Type in all cases: cell-based, mouse
[1] = test system: α7 integrin (LacZ reporter in α7+/LacZ myotubes); test: Myotube α7 integrin FDG assay (Burkin assay in myotubes, 96-well); details: myotubes
[2] = test system: β-galactosidase in CMV-LacZ C2C12 myoblasts; test: CMV-LacZ secondary screen in C2C12 myoblasts (β-Gal stabilizing assay); details: CMV-LacZ C2C12 myoblasts
In short: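 β-gal stabilization was measured in C2C12 myoblasts or myotubes stably transfected with a CMV-driven LacZ construct, using the FDG β-gal assay. Compounds were tested in dose-response at 0.5, 1, 5, 10, 20 and 40 μM, with two replicates per point.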

[3] = test system: β-galactosidase in CMV-LacZ C2C12 myotubes; test: CMV-LacZ secondary screen in C2C12 myotubes (β-Gal stabilizing assay); details: C2C12 CMV-LacZ myotubes, fold relative to DMSO
In short: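 β-Gal level was the read-out, measured in a clonal C2C12 line expressing LacZ from a CMV promoter. Dose-response curves used six concentrations, 0.5 μM up to 40 μM, with duplicate points.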

[4] = test system: α7 integrin (LacZ reporter in α7βgal+/− myoblasts); test: Myoblast α7+/LacZ integrin FDG assay (Burkin assay in myoblasts, 96-well); details: α7+/LacZ myoblasts, 96-well

Compound	Burkin Assay in Myotubes, α7 integrin LacZ reporter signal relative to DMSO ([1]; 0.5 uM)	Burkin Assay in Myotubes, α7 integrin LacZ reporter signal relative to DMSO ([1]; 1 uM)	Burkin Assay in Myotubes, α7 integrin LacZ reporter signal relative to DMSO ([1]; 5 uM)	Burkin Assay in Myotubes, α7 integrin LacZ reporter signal relative to DMSO ([1]; 10 uM)	Burkin Assay in Myotubes, α7 integrin LacZ reporter signal relative to DMSO ([1]; 20 uM)	Burkin Assay in Myotubes, α7 integrin LacZ reporter signal relative to DMSO ([1]; 40 uM)	CMV-LACZ in Myoblasts (β-galactosidase activity relative to DMSO) ([2]; 0.5 uM)	CMV-LACZ in Myoblasts (β-galactosidase activity relative to DMSO) ([2]; 1 uM)	CMV-LACZ in Myoblasts (β-galactosidase activity relative to DMSO) ([2]; 5 uM)	CMV-LACZ in Myoblasts (β-galactosidase activity relative to DMSO) ([2]; 10 uM)	CMV-LACZ in Myoblasts (β-galactosidase activity relative to DMSO) ([2]; 20 uM)	CMV-LACZ in Myoblasts (β-galactosidase activity relative to DMSO) ([2]; 40 uM)	CMV-LACZ in Myotubes, signal relative to DMSO ([3]; 0.5 uM)	CMV-LACZ in Myotubes, signal relative to DMSO ([3]; 1 uM)	CMV-LACZ in Myotubes, signal relative to DMSO ([3]; 5 uM)	CMV-LACZ in Myotubes, signal relative to DMSO ([3]; 10 uM)	CMV-LACZ in Myotubes, signal relative to DMSO ([3]; 20 uM)	CMV-LACZ in Myotubes, signal relative to DMSO ([3]; 40 uM)	Burkin Assay in Myoblasts, signal relative to DMSO ([4]; 0.5 uM)	Burkin Assay in Myoblasts, signal relative to DMSO ([4]; 1 uM)	also measured
COc1ccc(C(=O)Nc2ccc(Cl)cn2)cc1Cl [MLS000089748-01]	1.043	0.9139	0.8675	0.8026	0.7715	0.7415	1.2129	0.8592	1.0665	0.9905	0.3140	0.4437	0.9527	0.9809	1.1104	0.9813	1.3800	1.2820	1.145	1.168	Burkin Assay in Myoblasts, signal relative to DMSO ([4]; 5 uM): 0.8656; Burkin Assay in Myoblasts, signal relative to DMSO ([4]; 10 uM): 0.7355; Burkin Assay in Myoblasts, signal relative to DMSO ([4]; 20 uM): 0.2402; Burkin Assay in Myoblasts, signal relative to DMSO ([4]; 40 uM): 0.1766
CC(=O)C1=C(C)Nc2ncnn2C1c1ccc(C)cc1 (stereo not drawn) [MLS001197779-01]	1.038	0.961	1.102	0.9249	0.8237	0.913	0.8987	1.2563	0.7604	0.6490	0.9846	1.1267	1.1286	1.1705	1.0456	1.0983	1.0630	1.0540	0.9161	1.0032	Burkin Assay in Myoblasts, signal relative to DMSO ([4]; 5 uM): 1.281; Burkin Assay in Myoblasts, signal relative to DMSO ([4]; 10 uM): 0.9869; Burkin Assay in Myoblasts, signal relative to DMSO ([4]; 20 uM): 0.8467; Burkin Assay in Myoblasts, signal relative to DMSO ([4]; 40 uM): 0.753
O=C(CSc1nnc2c(n1)[nH]c1ccccc12)NCc1ccccc1F [MLS001225512-01]	0.929	1.059	0.9799	0.8235	0.8431	0.7401	0.9597	1.0843	1.1655	1.4266	0.8237	1.0111	1.0162	1.0381	0.9459	1.0077	1.2482	0.8871	1.1596	0.9131	Burkin Assay in Myoblasts, signal relative to DMSO ([4]; 5 uM): 1.173; Burkin Assay in Myoblasts, signal relative to DMSO ([4]; 10 uM): 0.8832; Burkin Assay in Myoblasts, signal relative to DMSO ([4]; 20 uM): 1.108; Burkin Assay in Myoblasts, signal relative to DMSO ([4]; 40 uM): 1.284

— US9980943B2, “Methods of treating muscular dystrophy” (BOARD OF REGENTS OF THE NEVADA SYSTEM OF HIGHER EDUCATION, …, priority 2013, dated 2018)
